# Legend:
# [1] = system: ICR mouse; experiment: Passive cutaneous anaphylaxis test (Evans blue leakage); format: in vivo; details: for anti-allergic effect in words, passive cutaneous anaphylaxis: Tables 5 and 6
# Experimental: 50 μl of diluted solution with physiological saline containing 10 μg of mouse IgE serum against dinitrophenol-human serum album (DNP-HSA, Sigma, USA), was injected to the back of ICR mouse (Dae Han Co., Ltd) anesthetized with ether to be passive sensitization. After 48 hours, 0.2 ml of physiological saline solution containing 0.2 mg of DNP-HSA and 1.6 mg of Evans blue was injected to the mouse's tail vein and the mouse was sacrificed by cervical dislocation to death and then the amount of Evans blue dye leaked to mouse's back was measured as follows. Certain circular area of mouse's back distant from the area where IGE injected about 1 cm^2 far, was cut and put into a test tube. 4 ml of mixture solution of 0.6M phosphoric acid and acetone with a ratio of 5:13 was added to the tube, stirred and filtered. The amount of dye was measured by colorimetric analysis at 620 nm.
# [2] = system: RBL-2H3 cell line; experiment: Anti-allergic effect using IgE-sensitized, DNP-BSA-activated RBL-2H3 cell line (p-NAG substrate readout); format: cell-based, rat; details: for Anti-allergic effect in RBL cell IC50 / IC50: Table 4, saponin fractions and isolated saponins; for anti-allergic effect in words, allergy inhibition test using RBL-2H3 cell line: Tables 3 and 4; for IC50: Rattus norvegicus
# Experimental: In order to confirm the anti-allergic effect of the extracts in the present invention, the experiment was performed by the procedure described in the literature (Inagaki. et al., Int, Arch. Allergy Appl. Immunol., 87, pp254-259, 1988).
# RBL-2H3 cell line (rat basophil cell line, Korean Cell Line Bank, Cat. No.22256) were incubated with DMEM (Dulbecco's modified Eagle's) medium (Sigma No. D-5648, USA) containing 10% FBS (Fetal Bovine Serum), L-glutamine for 2 hours at 37° C. by using humidified 5% CO2 incubator and attached cells were floated by trypsin-EDTA solution, separated and recovered to use in further experiment. Each RBL-2H3 cells were transferred to 24 well plate to be adjusted to 5×10^5 cells/well, treated with 0.5 μg of mouse monoclonal IgE and incubated for 12 hours to be sensitization. The cell was washed with 0.5 ml of siraganian buffer solution (pH 7.2) composed of 119 mM NaCl, 5 mM KCl, 0.4 mM MgCl2, 25 mM PIPES and 40 mM NaOH. 0.16 ml of siraganian buffer solution containing 5.5 mM glucose, 1 mM CaCl2 and 0.1% BSA, was added thereto again and incubated for 10 minutes at 37° C. Thereafter, 40 μl of test sample solution containing the extract in the Comparative Example 1, 2, 3 and Example 1, 2, 3 were added thereto. After 20 minutes, the cells were activated by adding 0.02 ml of antigen, 1 μg/ml of DNP-BSA, for 10 minutes at 37° C., centrifuged at the speed of 2000 rpm for 10 minutes and 0.025 ml of the supernatant was transferred to 96 well plate. 0.025 ml of 1 mM p-NAG substrate solution prepared by dissolving p-nitrophenyl-N-acetyl-β-D-glucosaminide with 0.1M citrate buffer solution adjusted to pH 4.5, was added thereto, incubated for 60 minutes at 37° C. and 0.2 ml of 0.1M Na2CO3/NaHCO3 was added thereto to quench the reaction to measure their optical density at 405 nm by ELISA analyzer.
compound,measurement,setting,value
CC(C)=CCC=C(C)[C@H]1CC[C@]2(C)[C@@H]1[C@H](O)C[C@@H]1[C@@]3(C)CC[C@H](O)C(C)(C)[C@@H]3[C@@H](O[C@@H]3O[C@H](CO)[C@@H](O)[C@H](O)[C@H]3O[C@@H]3O[C@@H](C)[C@H](O)[C@@H](O)[C@H]3O)C[C@]12C (stereo in doubt) [Ginsenoside F4],Passive cutaneous anaphylaxis Inhibitory rate (%) Abdominal administration,"[1]; Table 6, 25 mg/kg abdominal",63%
CC(C)=CCC[C@@](C)(O)[C@H]1CC[C@]2(C)[C@@H]1[C@H](O)C[C@@H]1[C@@]3(C)CC[C@H](O[C@@H]4O[C@H](CO)[C@@H](O)[C@H](O)[C@H]4O)C(C)(C)[C@@H]3CC[C@]12C [20(R)-ginsenoside Rh2],Anti-allergic effect in RBL cell IC50,[2],>0.2 µg/mL
CC(C)=CCC[C@@](C)(O)[C@H]1CC[C@]2(C)[C@@H]1[C@H](O)C[C@@H]1[C@@]3(C)CC[C@H](O)C(C)(C)[C@@H]3CC[C@]12C [20(R)-protopanaxadiol],Anti-allergic effect in RBL cell IC50,[2],>0.2 µg/mL
CC(C)=CCC[C@](C)(O)[C@H]1CC[C@]2(C)[C@@H]1[C@H](O)C[C@@H]1[C@@]3(C)CC[C@H](O[C@@H]4O[C@H](CO)[C@@H](O)[C@H](O)[C@H]4O[C@@H]4O[C@H](CO)[C@@H](O)[C@H](O)[C@H]4O)C(C)(C)[C@@H]3CC[C@]12C [20(S)-ginsenoside Rg3],Anti-allergic effect in RBL cell IC50,[2],>0.2 µg/mL
CC(C)=CCC[C@](C)(O)[C@H]1CC[C@]2(C)[C@@H]1[C@H](O)C[C@@H]1[C@@]3(C)CC[C@H](O[C@@H]4O[C@H](CO)[C@@H](O)[C@H](O)[C@H]4O)C(C)(C)[C@@H]3CC[C@]12C [20(S)-ginsenoside Rh2],Anti-allergic effect in RBL cell IC50,[2],0.03 µg/mL
CC(C)=CCC[C@](C)(O)[C@H]1CC[C@]2(C)[C@@H]1[C@H](O)C[C@@H]1[C@@]3(C)CC[C@H](O)C(C)(C)[C@@H]3CC[C@]12C [20(S)-protopanaxadiol],Anti-allergic effect in RBL cell IC50,[2],>0.2 µg/mL
"O=C([O-])c1cc(=O)c2c(OCC(O)COc3cccc4oc(C(=O)[O-])cc(=O)c34)cccc2o1.[Na+].[Na+] [DSCG, Disodium Cromoglycate, reference compound]",Anti-allergic effect in RBL cell IC50,[2],0.498 µg/mL
same,Passive cutaneous anaphylaxis Inhibitory rate (%),"[1]; Table 5, 100 mg/kg",37%
same,Passive cutaneous anaphylaxis Inhibitory rate (%) Oral administration,"[1]; Table 6, 100 mg/kg oral",37%
"CC(C)=CC/C=C(\C)[C@H]1CC[C@]2(C)[C@@H]1[C@H](O)C[C@@H]1[C@@]3(C)CC[C@H](O[C@@H]4O[C@H](CO)[C@@H](O)[C@H](O)[C@H]4O[C@@H]4O[C@H](CO)[C@@H](O)[C@H](O)[C@H]4O)C(C)(C)[C@@H]3CC[C@]12C [Gginsenoside Rg5, ginsenoside Rg5]",Passive cutaneous anaphylaxis Inhibitory rate (%) Abdominal administration,"[1]; Table 6, 25 mg/kg abdominal",45%
CC(C)=CCC[C@](C)(O[C@@H]1O[C@H](CO)[C@@H](O)[C@H](O)[C@H]1O)[C@H]1CC[C@]2(C)[C@@H]1[C@H](O)C[C@@H]1[C@@]3(C)CC[C@H](O)C(C)(C)[C@@H]3[C@@H](O)C[C@]12C [Ginsenoside F1],Anti-allergic effect in RBL cell IC50,[2],0.13 µg/mL
same,"anti-allergic effect in words, allergy inhibition test using RBL-2H3 cell line",[2],more potent inhibition effect than that of DSCG
same,Passive cutaneous anaphylaxis Inhibitory rate (%) Abdominal administration,"[1]; Table 6, 25 mg/kg abdominal",69%
same,"anti-allergic effect in words, passive cutaneous anaphylaxis",[1],more potent inhibitory effects than that of DSCG
CC(C)=CCC[C@](C)(O[C@@H]1O[C@H](CO[C@@H]2O[C@H](CO)[C@@H](O)[C@H](O)[C@H]2O)[C@@H](O)[C@H](O)[C@H]1O)[C@H]1CC[C@]2(C)[C@@H]1[C@H](O)C[C@@H]1[C@@]3(C)CC[C@H](O[C@@H]4O[C@H](CO)[C@@H](O)[C@H](O)[C@H]4O[C@@H]4O[C@H](CO)[C@@H](O)[C@H](O)[C@H]4O)C(C)(C)[C@@H]3CC[C@]12C [Ginsenoside Rb1],Anti-allergic effect in RBL cell IC50,[2],>0.2 µg/mL
same,Passive cutaneous anaphylaxis Inhibitory rate (%) Abdominal administration,"[1]; Table 6, 50 mg/kg abdominal",17%
CC(C)=CCC[C@](C)(O[C@@H]1O[C@H](CO[C@@H]2OC[C@H](O)[C@H](O)[C@H]2O)[C@@H](O)[C@H](O)[C@H]1O)[C@H]1CC[C@]2(C)[C@@H]1[C@H](O)C[C@@H]1[C@@]3(C)CC[C@H](O[C@@H]4O[C@H](CO)[C@@H](O)[C@H](O)[C@H]4O[C@@H]4O[C@H](CO)[C@@H](O)[C@H](O)[C@H]4O)C(C)(C)[C@@H]3CC[C@]12C [Ginsenoside Rb2],Anti-allergic effect in RBL cell IC50,[2],>0.2 µg/mL
same,Passive cutaneous anaphylaxis Inhibitory rate (%) Abdominal administration,"[1]; Table 6, 25 mg/kg abdominal",12%
CC(C)=CCC[C@](C)(O[C@@H]1O[C@H](CO)[C@@H](O)[C@H](O)[C@H]1O)[C@H]1CC[C@]2(C)[C@@H]1[C@H](O)C[C@@H]1[C@@]3(C)CC[C@H](O)C(C)(C)[C@@H]3[C@@H](O[C@@H]3O[C@H](CO)[C@@H](O)[C@H](O)[C@H]3O[C@@H]3O[C@@H](C)[C@H](O)[C@@H](O)[C@H]3O)C[C@]12C [Ginsenoside Re],IC50,[2],0.06 µg/mL
same,Passive cutaneous anaphylaxis Inhibitory rate (%) Abdominal administration,"[1]; Table 6, 25 mg/kg abdominal",15%
CC(C)=CCC[C@](C)(O)[C@H]1CC[C@]2(C)[C@@H]1[C@H](O)C[C@@H]1[C@@]3(C)CC[C@H](O)C(C)(C)[C@@H]3[C@@H](O[C@@H]3O[C@H](CO)[C@@H](O)[C@H](O)[C@H]3O[C@@H]3O[C@H](CO)[C@@H](O)[C@H](O)[C@H]3O)C[C@]12C [Ginsenoside Rf],IC50,[2],0.11 µg/mL
same,Passive cutaneous anaphylaxis Inhibitory rate (%) Abdominal administration,"[1]; Table 6, 25 mg/kg abdominal",40%
CC(C)=CCC[C@](C)(O[C@@H]1O[C@H](CO)[C@@H](O)[C@H](O)[C@H]1O)[C@H]1CC[C@]2(C)[C@@H]1[C@H](O)C[C@@H]1[C@@]3(C)CC[C@H](O)C(C)(C)[C@@H]3[C@@H](O[C@@H]3O[C@H](CO)[C@@H](O)[C@H](O)[C@H]3O)C[C@]12C [Ginsenoside Rg1],Anti-allergic effect in RBL cell IC50,[2],0.08 µg/mL
same,Passive cutaneous anaphylaxis Inhibitory rate (%) Abdominal administration,"[1]; Table 6, 25 mg/kg abdominal",37%
CC(C)=CCC[C@](C)(O)[C@H]1CC[C@]2(C)[C@@H]1[C@H](O)C[C@@H]1[C@@]3(C)CC[C@H](O[C@@H]4O[C@H](CO)[C@@H](O)[C@H](O)[C@H]4O[C@@H]4O[C@H](CO)[C@@H](O)[C@H](O)[C@H]4O)C(C)(C)[C@@H]3CC[C@]12C [Ginsenoside Rg3],Passive cutaneous anaphylaxis Inhibitory rate (%) Abdominal administration,"[1]; Table 6, abdominal, dosage cell empty",47%
same,Passive cutaneous anaphylaxis Inhibitory rate (%) Oral administration,"[1]; Table 6, oral, dosage cell empty",38%
CC(C)=CCC[C@](C)(O)[C@H]1CC[C@]2(C)[C@@H]1[C@H](O)C[C@@H]1[C@@]3(C)CC[C@H](O)C(C)(C)[C@@H]3[C@@H](O[C@@H]3O[C@H](CO)[C@@H](O)[C@H](O)[C@H]3O)C[C@]12C [Ginsenoside Rh1],Anti-allergic effect in RBL cell IC50,[2],0.02 µg/mL
same,"anti-allergic effect in words, allergy inhibition test using RBL-2H3 cell line",[2],more potent inhibition effect than that of DSCG
same,Passive cutaneous anaphylaxis Inhibitory rate (%) Abdominal administration,"[1]; Table 6, 25 mg/kg abdominal",87%
same,Passive cutaneous anaphylaxis Inhibitory rate (%) Oral administration,"[1]; Table 6, 25 mg/kg oral",79%
same,"anti-allergic effect in words, passive cutaneous anaphylaxis",[1],more potent inhibitory effects than that of DSCG
CC(C)=CCC[C@](C)(O)[C@H]1CC[C@]2(C)[C@@H]1[C@H](O)C[C@@H]1[C@@]3(C)CC[C@H](O[C@@H]4O[C@H](CO)[C@@H](O)[C@H](O)[C@H]4O)C(C)(C)[C@@H]3CC[C@]12C [Ginsenoside Rh2],"anti-allergic effect in words, allergy inhibition test using RBL-2H3 cell line",[2],more potent inhibition effect than that of DSCG
same,Passive cutaneous anaphylaxis Inhibitory rate (%) Abdominal administration,"[1]; Table 6, 25 mg/kg abdominal",88%
same,Passive cutaneous anaphylaxis Inhibitory rate (%) Oral administration,"[1]; Table 6, 25 mg/kg oral",36%
same,"anti-allergic effect in words, passive cutaneous anaphylaxis",[1],more potent inhibitory effects than that of DSCG
CC(C)=CCC[C@@](C)(O)[C@H]1CC[C@]2(C)[C@@H]1[C@H](O)C[C@@H]1[C@@]3(C)CC[C@H](O)C(C)(C)[C@@H]3CC[C@]12C [protopanaxadiol],Passive cutaneous anaphylaxis Inhibitory rate (%) Abdominal administration,"[1]; Table 6, 25 mg/kg abdominal",25%
Δ^20-ginsenoside Rg3,Anti-allergic effect in RBL cell IC50,[2],0.09 µg/mL

# Reference: US20030190378A1, “Extract of processed Panax genus plant, the preparation method thereof, and compositions containing the same” (priority 2002, published 2003)
